Columns and labels:
[1] = tested on: ERKs (Erk1 and Erk2) in hES cells; experiment: ERK phosphorylation Western blot in hES cells (Example 5); assay type: cell-based, human
Experimental: Western blots experiments were performed using protein lysate from hES cells. (A) Cells were pre-treated or not with U0126 (30 μM, 1 hr) and incubated for 5 min in the absence (C, control) or presence of S1P (10 μM). (B) Cells were incubated for different time periods in the absence or presence of S1P (10 μM). (C) Cells were incubated for 5 min with various concentrations of S1P. The phosphorylation of Erk1 and Erk2 (P-Erk1 and P-Erk2) was assessed by immunoblotting with a polyclonal anti-active MAP kinase as described in Materials and Methods. After a stripping procedure, the same blots reprobed with a monoclonal anti-MAP kinase, allowed the detection of Erk1 and Erk2.
For immunoblot analysis, cells were transferred into 24 well plates (8 colonies per well) without MEFs, and 24 hr later, were grown in the absence of serum for 18 hrs.
In some experiments, cells were pre-treated for 1 hr with U0126 (30 μM) or for 18 hrs with PTX (100 μg/ml).
hES3 cells were lysed following removal of the supernatants by addition of a reducing loading buffer (2% SDS, 62.5 mM Tris pH 6.8, 0.1 M DTT, 0.01% bromophenol blue) containing 1 mM sodium orthovanadate. Samples were boiled for 10 min and centrifuged at 13000 g for 15 min, and protein lysates (approx. 80 μg) were separated by SDS-polyacrylamide gel electrophoresis (10% polyacrylamide, w/v). Proteins were transferred to nitrocellulose (Hybond-ECL, Amersham) and immunoblotting was carried out with rabbit polyclonal anti-active mitogen-activated protein (MAPK) antibodies raised against a dually phosphorylated MAPK peptide (Promega, Madison, Wis., USA). Peroxidase-coupled secondary antibody (Dako) was detected by exposure of autoradiographic films in the presence of a chemiluminescent detection reagent (ECL, Amersham). Stripping of antibodies was achieved by incubating the membrane during 30 min at 50° C. in a buffer containing 100 mM mercaptoethanol, 2% SDS, 62.5 mM Tris-HCl pH 6.7. The membrane was then reprobing with rabbit polyclonal anti-ERK1/2 antibodies (Promega), and then with peroxidase-coupled secondary antibodies (Dako).

[2] = tested on: hES cells; experiment: Direct observation of hES colonies in serum-depleted medium (Example 4); assay type: cell-based, human
Experimental: (A) hES cells grown with feeder, before the depletion in serum. (B) hES cells grown without serum after 8 days (B, C) and 12 days (D, E), in absence (B, D) or presence of S1P (C, E, 10 μM).
For direct observation, hES-3 cells were coated into 12-well plates (3 colonies per well), with or without mouse embryonic feeders (MEFs). The day following the plating, cells were incubated with the different agents in serum free medium containing insulin, transferring and selenium. Media was changed the 2nd day and then every 2 days.

[3] = tested on: hES cells; experiment: ELISA-based GCTM-2 quantification in hES cells (Example 2); assay type: cell-based, human; details: treated 2 weeks, serum-free; n=3
Experimental: hES-3 cells were cultured as previously described^1. The serum-free culture medium consisted of DMEM (without sodium pyruvate, glucose 4500 mg/l, Invitrogen, Mount Waverley, VIC, Australia) supplemented with insulin/transferrin/selenium 1%, β-mercaptoethanol 0.1 mM, NEAA 1%, glutamine 2 mM, Hepes 25 mM, penicillin 50 U/ml and streptomycin […] (all from Invitrogen). Media was changed every 2 days and cells were passaged every week S1P and dihydro-S1P were obtained from Biomol (Plymouth Meeting, Pa., USA). LPA was obtained from Sigma (Castle Hill, NSW, Australia). Extemporaneous dilutions of all lipids were made in water containing 0.1% fatty acid-free bovine serum albumin (BSA) (Sigma). S1P and dihydro-S1P were used at […]. Human PDGF-AB, PDGF-AA, PDGF-BB were from Prepro Tech Inc. (Rocky Hill, N.J., USA) and were used at 20 ng/ml.
Cells were fixed in 100% ethanol and immunostained with GCTM-2 followed by alkaline phosphatase-coupled secondary antibodies (Dako). Alkaline phosphatase activity was detected by adding a solution of 4-nitrophenyl phosphate (Roche), and the concentration of the reaction product was determined by reading the optical density (OD) at 405 nm. In order to validate the technique as an accurate indicator of the proportion of GCTM-2 positive cells, standard curves were carried out with the embryonal carcinoma cell line GCT27C4, known to express GCTM-2^20.

[4] = tested on: SPK in MEF; experiment: Sphingosine kinase activity in MEF after PDGF; assay type: cell-based, mouse; details: PDGF 20 ng/ml
[5] = tested on: sphingosine kinase (SPK) in hES cells; experiment: Sphingosine kinase activity in hES cells after PDGF; assay type: cell-based, human; details: PDGF 20 ng/ml
Experimental: hES-3 cells plated without MEF for 24 hr and depleted of serum for a further 18 hr were incubated in the presence of PDGF (20 ng/ml) for various time periods and were harvested and lysed by sonication (2 W for 30 s at 4° C.) in lysis buffer containing 50 mM Tris/HCl (pH 7.4), 10% glycerol, 0.05% Triton X-100, 150 mM NaCl, 1 mM dithiothreitol, 2 mM Na3VO4, 10 mM NaF, 1 mM EDTA and protease inhibitors (Complete™, Roche, Mannheim, Germany). SPK activity was determined using D-erythro-sphingosine and […] as substrates, as previously described^19. Protein concentrations in cell homogenates were determined with Coomassie Brilliant Blue reagent (Bio-Rad, Regent Park, NSW, Australia) using bovine serum albumin as standard.

[6] = tested on: hES cells; experiment: GCTM-2 quantification by alkaline phosphatase activity, hES cells on MEF, serum-free (Example 1); assay type: cell-based, human; details: 8 days serum-free on MEF; S1P 10 μM, PDGF 20 ng/ml; n=7
Experimental: (A) hES cells grown with MEF, before the depletion of serum from the medium. (B, C, D, E) hES cells grown without serum after 8 days, in the absence (B) or in the presence of S1P (10 μM) (C), PDGF (20 ng/ml) (D), S1P (10 μM) plus PDGF (20 ng/ml) (E). (F) hES cells grown without serum, in the presence or in the absence (control) of S1P (10 μM), PDGF (20 ng/ml), S1P (10 μM) plus PDGF (20 ng/ml). In A-E, data are representative of at least 3 independent experiments. In F, data expressed as percentages of alkaline phosphatase activity in absence of serum for eight days (% of control), are the means±SEM of at least 2 independent experiments, each run in triplicate.
hES-3 cells plated with MEF, were fixed in ethanol and immunostained with GCTM-2 and then with an alkaline phosphatase-coupled secondary antibody (Dako). The activity of alkaline phosphatase was detected by adding a solution of 4-nitrophenyl phosphate (Roche, Mannheim, Germany), followed by reading the optical density (OD) at 405 nm. In order to validate the technique as a relevant indicator of the proportion of GCTM-2 positive cells, standard curves were done with the teratocarcinoma cell line GCT27C4, known to express GCTM-2.

Molecule | concentration dependence of ERKs stimulation ([1]; 5 min, various concentrations of S1P) | duration of ERKs stimulation ([1]; S1P 10 μM) | phosphorylation of ERKs ([1]; hES cells, 5 min, S1P 10 μM) | growth/differentiation of hES colonies on MEFs ([2]; S1P 10 μM 8 days, LPA up to 50 μM 12 days) | effect on cell differentiation, hES cells grown without MEFs ([2]; without MEFs, n=3) | more GCTM2+ than the controls [3] [%] | activation of SPK in MEF [4] | duration of SPK activity enhancement [5] | SPK activity ([5]; 30 min, value printed in brackets after 'basal values', n=3) [nmol/min/mg] | SPK activity relative to basal values ([5]; after 30 min of incubation) [fold] | more GCTM2+ than the control cells (alkaline phosphatase activity) [6] [%]
CCCCCCCCCCCCC/C=C/[C@@H](O)[C@@H](N)COP(=O)(O)O [S1P, Sphingosine-1-phosphate] | concentration dependant manner | at least 60 min | stimulated the phosphorylation of ERKs | more compact and less differentiated | inhibitory effect | 18.0±17.0 | – | – | – | – | –
PDGF | – | – | – | – | – | 50.3±18.4 | did not induce a significant statistical activation of SPK | at least 60 min | 75.3 ± 3.92 | 1.6 | 16.6±7.0
